In publication PMC8000760, “Potential Effect of Pseudevernia furfuracea (L.) Zopf Extract and Metabolite Physodic Acid on Tumour Microenvironment Modulation in MCF-10A Cells” (Biomolecules, 2021):

Experiments:
MCF-10A cells = assay: Flow cytometry cell cycle phase distribution; format: cell-based, human
Method: (§1) The MCF-10A and BJ-5ta cells were seeded and cultivated for 24 h in a complete medium. One day after seeding, 30 ng/mL of TGF-β was added and cultivated for 7 days (d). TGF-β was added to induce epithelial–mesenchymal transition in tested cell lines. Lichen extract P. furfuracea (L.) Zopf and its metabolite physodic acid were added at time 0 h and then incubated for 24, 48 and 72 h for various analyses, as described in Figure 1.
The MCF-10A cells (1 × 10^4/well) were seeded in Petri dishes and stimulated with […] TGF-β for 7 days. […] After detaching, using Trypsin/EDTA, cells were harvested and pelleted by centrifugation at 1200 rpm for 5 min. Pellet was re-suspended in PBS and divided for a particular analysis. Cells were stained prior to analyses with E-Cadherin Mouse mAb (Alexa Fluor 488 conjugate) or N-cadherin Rabbit mAb (Alexa Fluor 647 conjugate) (Cell Signalling) for 15 min at RT in the dark. For the cell cycle analyses, cells were re-suspended in staining solution (final concentration 0.1% Triton X-100, 0.5 mg/mL ribonuclease A and 0.025 mg/mL propidium iodide (PI)), and incubated in the dark at RT for 30 min. All samples were analysed using a FACS Calibur flow cytometer (Becton Dickinson, San Jose, CA, USA). The IgG isotype control checking was performed for every used antibody.

[1] = test system: MCF-10A, BJ-5ta and HUVEC cells; assay: MTS cell viability assay, range over the three cell lines; format: cell-based; conditions: cell viability and cell proliferation tests
Method: Briefly, MCF-10A and BJ-5ta were seeded in 96-well culture plates, and after 24 h incubation, treated with various ranges of concentrations of tested compounds (10–100 μg/mL) for 72 h. At the same time, HUVECs were seeded in a gelatine-coated 96-well plate and treated with the same aliquots of indicated compounds in the presence or absence of VEGF (Vascular endothelial growth factor) (25 ng/mL) for 48 h. Cell viability was evaluated by measuring the absorbance at 490 nm using the automated CytationTM 3 Cell Imaging Multi-Mode Reader (Biotek, Winooski, VT, USA). Three independent experiments were performed at different intervals.

[2] = test system: fibronectin in TGF-β-stimulated MCF-10A cells; assay: Fibronectin expression, Western blot; format: cell-based, human; conditions: IC10 and IC50, dose-dependent manner
Method: as §1
(§2) Proteins isolated from MCF-10A and BJ-5ta cell lysates were determined by the Pierce® BCA Protein Assay Kit (Thermo Scientific, Rockford, IL, United States), using bovine serum albumin (BSA) as the standard, and measured by an automated Cytation™ 3 Cell Imaging Multi-Mode Reader (Biotek) at a wavelength of 570 nm. Proteins were separated on SDS-PAA gel (12%) at 100 V for 2 h and then transferred to a polyvinylidene difluoride (PVDF) membrane using the iBlot dry blotting system (Thermo Scientific, Rockford, IL, United States). […] After incubation, the membrane was again washed in TBS-Tween (3 × 5 min), and the expression of the protein was detected using a chemiluminescent ECL substrate (Thermo Fisher Scientific) and MF-ChemiBIS 2.0 Imaging System (DNR BIO-Imaging Systems, Jerusalem, Israel). The detected band was then analysed densitometrically using the Image Studio Lite software (LI-COR Biosciences, Lincoln, NE, USA). […]

Smad2/3 in BJ-5ta = assay: Western blot of total Smad2/3 in TGF-β-stimulated fibroblasts; format: cell-based; conditions: TGF-β-stimulated BJ-5ta
Method: as §1, §2

[3] = test system: N-cadherin in TGF-β-stimulated MCF-10A cells; assay: N-cadherin expression, immunofluorescence staining; format: cell-based, human; conditions: IC10, 72 h, compared to TGF-β alone
Method: as §1
The MCF-10A cells at a density of 2 × 10^3/cm^2, plated on 22 mm^2 glass coverslips, were stimulated for 7 days with 30 ng/mL of TGF-β. […] After treatment, cells were washed with PBS, fixed with 4% paraformaldehyde (pH 7.2) for 10 min, permeabilised by 0.1% Triton X-100 (Sigma-Aldrich) for 10 min at RT and then washed three) times with PBS for 5 min. Glass coverslips were then incubated with Swine serum (1:30) for 30 min for blocking non-specific binding. Primary antibodies were diluted according to the manufacturer’s instructions (Table 2) and transferred to coverslips for 90 min. […] All coverslips were mounted in Vectashield (Cole-Parmer, Illinois, USA) and immunofluorescence pictures were taken with the same exposition settings by the Nikon Eclipse 90i fluorescence microscope (Nikon, Tokyo, Japan) equipped with filter cubes for FITC and DAPI. Images were then analysed using ImageJ (NIH) software.

[4] = 24 h, IC10, in the presence of 30 ng/mL TGF-β
[5] = 24 h, treatment alone (IC10 of PSE/Phy, or TGF-β 30 ng/mL)
[6] = 48 h, IC10, in the presence of 30 ng/mL TGF-β
[7] = 48 h, treatment alone (IC10 of PSE/Phy, or TGF-β 30 ng/mL)
[8] = 72 h, IC10, in the presence of 30 ng/mL TGF-β
[9] = 72 h, treatment alone (IC10 of PSE/Phy, or TGF-β 30 ng/mL)

CCCCCC(=O)Cc1cc(O)cc2c1C(=O)Oc1cc(O)c(C(=O)O)c(CCCCC)c1O2 [Phy, physodic acid]
G1 cell cycle phase distribution (MCF-10A cells; [4]): 73.45 ± 0.69 | G2/M cell cycle phase distribution (MCF-10A cells; [4]): 13.25 ± 2.08 | S cell cycle phase distribution (MCF-10A cells; [4]): 12.20 ± 2.69 | Sub G0 cell cycle phase distribution (MCF-10A cells; [4]): 1.10 ± 0.07 | G1 cell cycle phase distribution (MCF-10A cells; [5]): 73.25 ± 0.37 | G2/M cell cycle phase distribution (MCF-10A cells; [5]): 13.85 ± 0.61 | S cell cycle phase distribution (MCF-10A cells; [5]): 12.05 ± 0.86 | Sub G0 cell cycle phase distribution (MCF-10A cells; [5]): 0.86 ± 0.12 | G1 cell cycle phase distribution (MCF-10A cells; [6]): 89.05 ± 1.18^Δ | G2/M cell cycle phase distribution (MCF-10A cells; [6]): 5.78 ± 1.16 | S cell cycle phase distribution (MCF-10A cells; [6]): 3.36 ± 0.27 | Sub G0 cell cycle phase distribution (MCF-10A cells; [6]): 1.82 ± 0.24 | G1 cell cycle phase distribution (MCF-10A cells; [7]): 88.15 ± 0.53 | G2/M cell cycle phase distribution (MCF-10A cells; [7]): 5.06 ± 1.00 | S cell cycle phase distribution (MCF-10A cells; [7]): 4.23 ± 0.48 | Sub G0 cell cycle phase distribution (MCF-10A cells; [7]): 2.54 ± 0.04 | G1 cell cycle phase distribution (MCF-10A cells; [8]): 89.75 ± 0.86^Δ | G2/M cell cycle phase distribution (MCF-10A cells; [8]): 4.34 ± 1.27^Δ | S cell cycle phase distribution (MCF-10A cells; [8]): 3.14 ± 0.52 | Sub G0 cell cycle phase distribution (MCF-10A cells; [8]): 2.77 ± 0.94 | G1 cell cycle phase distribution (MCF-10A cells; [9]): 88.50 ± 1.14 | G2/M cell cycle phase distribution (MCF-10A cells; [9]): 3.99 ± 0.80 | S cell cycle phase distribution (MCF-10A cells; [9]): 5.45 ± 2.26 | Sub G0 cell cycle phase distribution (MCF-10A cells; [9]): 2.06 ± 0.35 | cell cycle phase distribution versus control or TGF-β alone (MCF-10A cells; IC10, absence or presence of TGF-β 30 ng/mL, 24, 48 and 72 h): no significant differences | degree of cytotoxicity on all tested cells [1]: did not show a high degree of cytotoxicity | levels of fibronectin, Western blot [2]: downregulated | total Smad2/3 levels (Smad2/3 in BJ-5ta): altered minimally | N-cadherin expression, immunofluorescence [3]: significant decrease
